Legend:
Assay in all cases: Test F pre-/postemergence plant response
Format in all cases: in vivo
Conditions in all cases: scale 0 to 100
[1] = test system: arrowleaf sida (Sida rhombifolia)
In short: (§1)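 Values are visual ratings, where 100 is complete control and 0 is no effect, given after 14 to 21 days of greenhouse growth. Test chemicals in a non-phytotoxic, surfactant-containing solvent were sprayed on soil just after planting or on emerged seedlings at the 1- to 4-leaf stage.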

[2] = test system: waterhemp (common waterhemp, Amaranthus rudis)
In short: as §1

[3] = test system: dayflower (Virginia (VA) dayflower, Commelina virginica)
In short: as §1

[4] = test system: palmer pigweed (Amaranthus palmeri)
In short: as §1

[5] = test system: barnyardgrass (Echinochloa crus-galli)
In short: as §1

[6] = test system: sandbur (southern sandbur, Cenchrus echinatus)
In short: as §1

SMILES: FC(F)c1cc(-c2ccccc2Oc2ncc(Br)cn2)on1 [Compound 212]
- Plant response rating, Arrowleaf Sida ([1]; 16 g ai/ha Postemergence): 75
- Plant response rating, Arrowleaf Sida ([1]; 31 g ai/ha Postemergence): 70
- Plant response rating, Arrowleaf Sida ([1]; 62 g ai/ha Postemergence): 85
- Plant response rating, Arrowleaf Sida ([1]; 125 g ai/ha Postemergence): 100
- Plant response rating, Waterhemp ([2]; 16 g ai/ha Postemergence): 90
- Plant response rating, Waterhemp ([2]; 31 g ai/ha Postemergence): 90
- Plant response rating, Waterhemp ([2]; 62 g ai/ha Postemergence): 95
- Plant response rating, Waterhemp ([2]; 125 g ai/ha Postemergence): 100
- Plant response rating, Dayflower, VA ([3]; 16 g ai/ha Postemergence): 30
- Plant response rating, Dayflower, VA ([3]; 31 g ai/ha Postemergence): 20
- Plant response rating, Dayflower, VA ([3]; 62 g ai/ha Postemergence): 40
- Plant response rating, Dayflower, VA ([3]; 125 g ai/ha Postemergence): 50
- Plant response rating, Pigweed, Palmer ([4]; 16 g ai/ha Postemergence): 30
- Plant response rating, Pigweed, Palmer ([4]; 31 g ai/ha Postemergence): 75
- Plant response rating, Pigweed, Palmer ([4]; 62 g ai/ha Postemergence): 100
- Plant response rating, Pigweed, Palmer ([4]; 125 g ai/ha Postemergence): 98
- Plant response rating, Barnyardgrass ([5]; 16 g ai/ha Postemergence): 0
- Plant response rating, Barnyardgrass ([5]; 31 g ai/ha Postemergence): 0
- Plant response rating, Barnyardgrass ([5]; 62 g ai/ha Postemergence): 0
- Plant response rating, Barnyardgrass ([5]; 125 g ai/ha Postemergence): 10
- Plant response rating, Sandbur ([6]; 16 g ai/ha Postemergence): 0
- Plant response rating, Sandbur ([6]; 31 g ai/ha Postemergence): 0
- Plant response rating, Sandbur ([6]; 62 g ai/ha Postemergence): 0
- Plant response rating, Sandbur ([6]; 125 g ai/ha Postemergence): 10
